Broadly, the IC50 is the concentration that gives 50% inhibition.

The test system of series [1] is Plasmodium falciparum W2 Strain. The series can be described thus: microbe, parasite or virus in culture. The class given is cell-based.
Series [2] concerns Plasmodium falciparum 3D7 Strain. Nature of the series: Antiplasmodial SYBR Green I assay, chloroquine-sensitive 3D7 strain. The class given is cell-based.
The test system of a further series is HUVEC cells. Particulars: human.

For `CCN(CC)CCCC(C)Nc1ccnc2cc(Cl)ccc12` (centres unmarked) [CQ, chloroquine, reference compound], the IC50 in series [1] (Plasmodium falciparum, W2, 48 h, read-out: IC50 ± SD, Plasmodium falciparum W2 Strain) is 134 ± 32.3 nM; in series [2] (Plasmodium falciparum, chloroquine-sensitive 3D7, 48 h incubation, SYBR Green I, read-out: IC50 ± SD, Plasmodium falciparum 3D7 Strain), 22.4 ± 3.24 nM.
Consider `O=C(COc1ccccc1)N1CCC(N(C(=O)COc2ccccc2)c2ccccc2)CC1` [Compound 10], for which the “Selectivity Index (W2) =CC50/IC50” value in series [1] (CC50 HUVEC / IC50 W2) is over 5.3. The “CC50 ± SD, HUVEC Cells” value with HUVEC cells is over 100 nM. The “Selectivity Index (3D7) =CC50/IC50” value in series [2] (CC50 HUVEC / IC50 3D7) is over 8.9.
